Literature values as cited in patent US12285410B2, “Combination comprising HDAC inhibitor and CD137 agonist for cancer therapy” (4SC AG, priority 2018, dated 2025).

Legend:
[1] = system: different types of blood cancer; conditions: 24 heavily pre-treated patients

In the case of Cn1cc(-c2ccc(S(=O)(=O)n3ccc(/C=C/C(=O)Nc4ccccc4N)c3)cc2)cn1 [Compound 4SC-202, (E)-N-(2-aminophenyl)-3-(1-((4-(1-methyl-1H-pyrazol-4-yl)phenyl)sulfonyl)-1H-pyrrol-3-yl)acrylamide], the “complete remission (one patient), duration” value [1] is given as 28 months, the “disease control, share of patients” value [1] is given as 83% and the “long-term stabilization, share of patients” value [1] is given as 50%. For the same compound, the “partial responder (one patient), duration” value [1] was 8 months and the tolerability [1] was “well tolerated with few and/or manageable adverse events”.

In the case of Urelumab, the “immunologic and pharmacodynamic activity” value (at 0.1 mg/kg every 3 weeks) is given as “immunologic and pharmacodynamic activity demonstrated by the induction of IFN-inducible genes and cytokines”, the tolerability (at 0.1 mg/kg every 3 weeks) is given as “relatively well tolerated” and the “treatment-related AE: fatigue” value (at 0.1 mg/kg every 3 weeks) is given as 16%. The “treatment-related AE: nausea” value (at 0.1 mg/kg every 3 weeks) was 13% and the maximum tolerated dose (every 3 weeks) was 0.1 mg/kg.
